Key:
Type in all cases: in vivo
[1] = system: Bemisia tabaci; assay: Bemisia tabaci leaf dip test (brinjal leaves, whitefly adults); settings: foliar, 72 h after release, dead and moribund combined, compared to untreated control, read-out: percent mortality
Method: The leaf dip method was used for testing, wherein the required quantity of the compound was weighed and dissolved in a tube containing a solvent solution. The tube was put on a vortex at 2000 rpm for 90 min for proper mixing and then the mixture was diluted with a 0.01% Triton-X solution to the desired test concentration. Brinjal leaves were dipped in the compound solution for 10 seconds, shade dried for 20 min and then placed, with the abaxial side of the leaf up, on 4 ml of a 1% agar-agar solution in respective container caps. Known numbers of freshly emerged whitefly adults were collected, using a modified aspirator, and released into a perforated container in which the cap containing the treated leaf was placed. The containers were kept in a plant growth chamber at a temperature of 25° C. and a relative humidity of 70%. Observations on dead, moribund and alive adults were recorded 72 h after the release. Percent mortality was calculated by combining dead and moribund adults and comparing the result to the one of the untreated control. The compounds 32 53 58 79 80 81 82 84 87 88 89 94 95 96 101 102 103 104 105 106 107 108 109 112 113 114 115 116 117 118 119 120 123 124 125 126 127 130 135 138 139 140 144 145 147 150 154 156 158 159 164 167 168 169 170 171 188 189 191 198 199 200 201 202 206 207 208 209 210 213 216 223 224 225 227 228 231 232 233 234 235 236 238 242 243 244 246 and 247 recorded≥70 percent mortality @ 300 PPM.

[2] = system: Myzus persicae; assay: Myzus persicae leaf dip test (capsicum leaves, third instar nymphs); settings: foliar, 72 h after release, dead and moribund combined, compared to untreated control, read-out: percent mortality
[3] = system: Nilaparvata lugens; assay: Nilaparvata lugens seedling dip test (paddy seedlings, third instar nymphs); settings: 72 h after release, dead and moribund combined, compared to untreated control, read-out: percent mortality

| SMILES | mortality at 300 ppm [1] [%] | mortality at 300 ppm [2] [%] | mortality at 300 ppm [3] [%] |
| --- | --- | --- | --- |
| O=c1nc2n(Cc3cnc(Cl)s3)cccc-2c(=O)n1-c1ccc(Cl)cc1 [Compound 80, 3-(4-chlorophenyl)-8-((2-chlorothiazol-5-yl)methyl)pyrido[2,3-d]pyrimidine-2,4(3H,8H)-dione] | ≥ 70 | ≥ 70 | – |
| O=c1nc2n(Cc3cnc(Cl)nc3)cccc-2c(=O)n1-c1ccc(Cl)cc1 [Compound 82, 3-(4-chlorophenyl)-8-((2-chloropyrimidin-5-yl)methyl)pyrido[2,3-d]pyrimidine-2,4(3H,8H)-dione] | ≥ 70 | ≥ 70 | ≥ 70 |
| CC(C)n1c(=O)nc2n(Cc3cnc(Cl)nc3)cccc-2c1=O [Compound 84, 8-((2-chloropyrimidin-5-yl)methyl)-3-isopropylpyrido[2,3-d]pyrimidine-2,4(3H,8H)-dione] | ≥ 70 | ≥ 70 | – |
| O=c1nc2n(Cc3cnc(Cl)s3)cccc-2c(=O)n1-c1cccc(C(F)(F)F)c1 [Compound 88, 8-((2-chlorothiazol-5-yl)methyl)-3-(3-(trifluoromethyl)phenyl)pyrido[2,3-d]pyrimidine-2,4(3H,8H)-dione] | ≥ 70 | ≥ 70 | ≥ 70 |
| Cn1cc(-n2c(=O)nc3n(Cc4cnc(Cl)s4)cccc-3c2=O)cn1 [Compound 89, 8-((2-chlorothiazol-5-yl)methyl)-3-(1-methyl-1H-pyrazol-4-yl)pyrido[2,3-d]pyrimidine-2,4(3H,8H)-dione] | ≥ 70 | ≥ 70 | – |
| O=c1nc2n(Cc3cnc(Cl)nc3)cccc-2c(=O)n1-c1cccc(Cl)c1 [Compound 96, 3-(3-chlorophenyl)-8-((2-chloropyrimidin-5-yl)methyl)pyrido[2,3-d]pyrimidine-2,4(3H,8H)-dione] | ≥ 70 | ≥ 70 | ≥ 70 |
| O=c1nc2n(Cc3ccc(Cl)nc3)cccc-2c(=O)n1-c1cc(C(F)(F)F)cc(C(F)(F)F)c1 [Compound 107, 3-(3,5-bis(trifluoromethyl)phenyl)-8-((6-chloropyridin-3-yl)methyl)pyrido[2,3-d]pyrimidine-2,4(3H,8H)-dione] | ≥ 70 | ≥ 70 | – |
| O=c1nc2n(Cc3ccc(Cl)nc3)cccc-2c(=O)n1-c1cc(Cl)cc(C(F)(F)F)c1 [Compound 109, 3-(3-chloro-5-(trifluoromethyl)phenyl)-8-((6-chloropyridin-3-yl)methyl)pyrido[2,3-d]pyrimidine-2,4(3H,8H)-dione] | ≥ 70 | ≥ 70 | ≥ 70 |
| O=c1nc2n(Cc3cnc(Cl)nc3)cccc-2c(=O)n1-c1ccc(F)cc1 [Compound 117, 8-((2-chloropyrimidin-5-yl)methyl)-3-(4-fluorophenyl)pyrido[2,3-d]pyrimidine-2,4(3H,8H)-dione] | ≥ 70 | ≥ 70 | ≥ 70 |
| O=c1nc2n(Cc3cnc(Cl)nc3)cccc-2c(=O)n1-c1cccc(F)c1 [Compound 118, 8-((2-chloropyrimidin-5-yl)methyl)-3-(3-fluorophenyl)pyrido[2,3-d]pyrimidine-2,4(3H,8H)-dione] | ≥ 70 | ≥ 70 | ≥ 70 |
| O=c1nc2n(Cc3ccc(Cl)nc3)cccc-2c(=O)n1-c1ccc(OC(F)(F)F)cc1 [Compound 126, 8-((6-chloropyridin-3-yl)methyl)-3-(4-(trifluoromethoxy)phenyl)pyrido[2,3-d]pyrimidine-2,4(3H,8H)-dione] | ≥ 70 | ≥ 70 | – |
| O=c1nc2n(Cc3cnc(Cl)nc3)cccc-2c(=O)n1-c1cccc(OC(F)(F)F)c1 [Compound 130, 8-((2-chloropyrimidin-5-yl)methyl)-3-(3-(trifluoromethoxy)phenyl)pyrido[2,3-d]pyrimidine-2,4(3H,8H)-dione] | ≥ 70 | – | ≥ 70 |
| O=c1nc2n(Cc3ccc(C(F)(F)F)nc3)cccc-2c(=O)n1-c1ccc(Cl)cc1 [Compound 145, 3-(4-chlorophenyl)-8-((6-(trifluoromethyl)pyridin-3-yl)methyl)pyrido[2,3-d]pyrimidine-2,4(3H,8H)-dione] | ≥ 70 | – | – |
| O=c1nc2n(Cc3cnc(Cl)nc3)cccc-2c(=O)n1-c1ccc(Cl)cc1F [Compound 147, 3-(4-chloro-2-fluorophenyl)-8-((2-chloropyrimidin-5-yl)methyl)pyrido[2,3-d]pyrimidine-2,4(3H,8H)-dione] | ≥ 70 | – | ≥ 70 |
| O=c1nc2n(Cc3ccc(C(F)(F)F)nc3)cccc-2c(=O)n1-c1ccc(F)cc1 [Compound 156, 3-(4-fluorophenyl)-8-((6-(trifluoromethyl)pyridin-3-yl)methyl)pyrido[2,3-d]pyrimidine-2,4(3H,8H)-dione] | ≥ 70 | – | – |
| O=c1nc2n(Cc3cnc(Cl)nc3)cccc-2c(=O)n1-c1ccc(Cl)c(Cl)c1 [Compound 158, 8-((2-chloropyrimidin-5-yl)methyl)-3-(3,4-dichlorophenyl)pyrido[2,3-d]pyrimidine-2,4(3H,8H)-dione] | ≥ 70 | – | – |
| COc1cc(-n2c(=O)nc3n(Cc4cnc(Cl)s4)cccc-3c2=O)ccc1Cl [Compound 167, 3-(4-chloro-3-methoxyphenyl)-8-((2-chlorothiazol-5-yl)methyl)pyrido[2,3-d]pyrimidine-2,4(3H,8H)-dione] | ≥ 70 | – | – |
| COc1cc(-n2c(=O)nc3n(Cc4cnc(Cl)nc4)cccc-3c2=O)ccc1Cl [Compound 171, 3-(4-chloro-3-methoxyphenyl)-8-((2-chloropyrimidin-5-yl)methyl)pyrido[2,3-d]pyrimidine-2,4(3H,8H)-dione] | ≥ 70 | – | ≥ 70 |
| O=c1nc2n(Cc3cnc(Cl)nc3)cccc-2c(=O)n1-c1ccccc1F [Compound 200, 8-((2-chloropyrimidin-5-yl)methyl)-3-(2-fluorophenyl)pyrido[2,3-d]pyrimidine-2,4(3H,8H)-dione] | ≥ 70 | – | ≥ 70 |
| O=c1nc2n(Cc3cnc(Cl)nc3)cccc-2c(=O)n1-c1c(F)cccc1F [Compound 206, 8-((2-chloropyrimidin-5-yl)methyl)-3-(2,6-difluorophenyl)pyrido[2,3-d]pyrimidine-2,4(3H,8H)-dione] | ≥ 70 | – | ≥ 70 |
| O=c1c2cccn(Cc3ccc(Cl)nc3)c-2nc(=S)n1-c1ccc(OC(F)(F)F)cc1 [Compound 209, 8-((6-chloropyridin-3-yl)methyl)-2-thioxo-3-(4-(trifluoromethoxy)phenyl)-2,8-dihydropyrido[2,3-d]pyrimidin-4(3H)-one] | ≥ 70 | – | ≥ 70 |
| O=c1nc2n(Cc3cnc(Cl)nc3)cccc-2c(=O)n1-c1ccc(Cl)c(C(F)(F)F)c1 [Compound 224, 3-(4-chloro-3-(trifluoromethyl)phenyl)-8-((2-chloropyrimidin-5-yl)methyl)pyrido[2,3-d]pyrimidine-2,4(3H,8H)-dione] | ≥ 70 | – | ≥ 70 |
| O=c1nc2n(Cc3cnc(Cl)nc3)cccc-2c(=O)n1-c1ccc(OC(F)(F)F)c(Cl)c1 [Compound 227, 3-(3-chloro-4-(trifluoromethoxy)phenyl)-8-((2-chloropyrimidin-5-yl)methyl)pyrido[2,3-d]pyrimidine-2,4(3H,8H)-dione] | ≥ 70 | – | – |

Source: US20240425502A1, “BICYCLIC HETEROAROMATIC COMPOUNDS AND THEIR USE AS PEST CONTROL AGENTS” (PI INDUSTRIES LTD., priority 2021, published 2024)
